#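 Results reflect a 48-hour exposure of cells in 96-well plates to compound at five concentrations. Abbreviation: GI50, concentration required for 50% inhibition of growth.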 Calls of active or inactive are those of the source. No stated cut-off is given here; in the data, active = GI50 up to about 1.1 µM and inactive = higher.
# Experiments:
# Assay in all cases: NCI anticancer screen, dose series, 48 h
# UACC-257 = tested on: UACC-257
# KM12 = tested on: KM12
# NCI-H522 = tested on: NCI-H522
# HOP-62 = tested on: HOP-62
# OVCAR-4 = tested on: OVCAR-4
# HCC 2998 = tested on: HCC 2998
# A549 = tested on: A549
# NCI-H23 = tested on: NCI-H23
# EKVX = tested on: EKVX
# MOLT-4 = tested on: MOLT-4
# SNB-75 = tested on: SNB-75
# RPMI-8226 = tested on: RPMI-8226
# K562 = tested on: K562
# NCI-H460 = tested on: NCI-H460
# RXF 393 = tested on: RXF 393
# NCI-H226 = tested on: NCI-H226
# SK-MEL-5 = tested on: SK-MEL-5
# LOX IMVI = tested on: LOX IMVI
SMILES,GI50 (UACC-257),GI50 (KM12),GI50 (NCI-H522),GI50 (HOP-62),GI50 (OVCAR-4),GI50 (HCC 2998),GI50 (A549),GI50 (NCI-H23),GI50 (EKVX),GI50 (MOLT-4),GI50 (SNB-75),GI50 (RPMI-8226),GI50 (K562),GI50 (NCI-H460),GI50 (RXF 393),GI50 (NCI-H226),GI50 (SK-MEL-5),GI50 (LOX IMVI)
O=C(CNc1nncs1)NO,> 100 µM (inactive),> 100 µM (inactive),> 100 µM (inactive),> 100 µM (inactive),> 100 µM (inactive),> 100 µM (inactive),> 100 µM (inactive),> 100 µM (inactive),> 100 µM (inactive),> 100 µM (inactive),> 100 µM (inactive),> 100 µM (inactive),> 100 µM (inactive),> 100 µM (inactive),> 100 µM (inactive),–,–,–
CN[C@H](C)[C@@H](OC)c1ccccc1,> 100 µM (inactive),> 100 µM (inactive),–,> 100 µM (inactive),> 100 µM (inactive),> 100 µM (inactive),> 100 µM (inactive),–,> 100 µM (inactive),> 100 µM (inactive),61.4 µM (inactive),> 100 µM (inactive),> 100 µM (inactive),> 100 µM (inactive),> 100 µM (inactive),> 100 µM (inactive),> 100 µM (inactive),> 100 µM (inactive)
Cc1c(C(=O)Nc2ccc(Cl)cc2)nc(N)nc1-c1cccc(Cl)c1,> 100 µM (inactive),46.6 µM (inactive),–,> 100 µM (inactive),> 100 µM (inactive),61.9 µM (inactive),74.5 µM (inactive),> 100 µM (inactive),> 100 µM (inactive),> 100 µM (inactive),–,–,38.5 µM (inactive),66.2 µM (inactive),39.5 µM (inactive),> 100 µM (inactive),> 100 µM (inactive),> 10 µM (inactive)
CCc1cccc(C(C)CC)c1NC(=O)CC1C(=O)Nc2ccccc2[S+]1[O-] (stereo not given),> 100 µM (inactive),–,–,–,18.3 µM (inactive),> 100 µM (inactive),31.8 µM (inactive),58.2 µM (inactive),> 100 µM (inactive),14.9 µM (inactive),22.4 µM (inactive),31.3 µM (inactive),42.3 µM (inactive),29.4 µM (inactive),13.9 µM (inactive),> 100 µM (inactive),27.2 µM (inactive),28.2 µM (inactive)
COc1cc2c(c(OC)c1OC)-c1ccc(SC)c(=O)cc1[C@@H](NC(=O)c1ccc([N+](=O)[O-])cc1)CC2,< 0.0025 µM (active),< 0.0025 µM (active),–,< 0.0025 µM (active),0.123 µM (active),0.00588 µM (active),0.025 µM (active),< 0.01 µM (active),< 0.0025 µM (active),0.00289 µM (active),10.7 µM (inactive),< 0.0025 µM (active),< 0.0025 µM (active),0.00327 µM (active),< 0.0025 µM (active),< 0.01 µM (active),< 0.0025 µM (active),< 0.0025 µM (active)
Cc1cc(O)nc(NNC(C#N)c2ccc([N+](=O)[O-])cc2)n1 (stereo not given),> 100 µM (inactive),84.9 µM (inactive),> 100 µM (inactive),> 100 µM (inactive),> 100 µM (inactive),–,> 100 µM (inactive),> 100 µM (inactive),–,> 100 µM (inactive),34.8 µM (inactive),> 100 µM (inactive),> 100 µM (inactive),> 100 µM (inactive),93.8 µM (inactive),> 100 µM (inactive),> 100 µM (inactive),> 100 µM (inactive)
CC(=O)C1(O)CCC2(O)C3(O)CC=C4CC(O)CCC4(C)C3CC(OC(=O)c3ccc(O)cc3)C12C.COC1CC(OC2C(C)OC(OC3C(C)OC(OC4CCC5(C)C(=CCC6(O)C5CC(OC(=O)c5ccc(O)cc5)C5(C)C(O)(C(C)=O)CCC65O)C4)CC3OC)CC2OC)OC(C)C1O (stereo not given),23.4 µM (inactive),–,–,31.6 µM (inactive),–,26.9 µM (inactive),30.5 µM (inactive),28.9 µM (inactive),35.4 µM (inactive),30.5 µM (inactive),76.4 µM (inactive),27.5 µM (inactive),–,34.2 µM (inactive),44.4 µM (inactive),34.4 µM (inactive),–,20.5 µM (inactive)
COC[C@@H](/N=C/N1CCc2cc(OC)c(OC)cc2[C@@H]1C)C(C)(C)C,> 100 µM (inactive),> 100 µM (inactive),> 100 µM (inactive),> 100 µM (inactive),> 100 µM (inactive),–,> 100 µM (inactive),> 100 µM (inactive),> 100 µM (inactive),> 100 µM (inactive),> 100 µM (inactive),> 100 µM (inactive),> 100 µM (inactive),> 100 µM (inactive),> 100 µM (inactive),> 100 µM (inactive),> 100 µM (inactive),–
N=C(N)NS(=O)(=O)c1ccc(NCc2c3ccccc3[n+]([O-])c3ccccc23)cc1,74.6 µM (inactive),30.4 µM (inactive),29.9 µM (inactive),15.9 µM (inactive),23.8 µM (inactive),13.4 µM (inactive),17.6 µM (inactive),21.8 µM (inactive),> 100 µM (inactive),1.94 µM (inactive),13.5 µM (inactive),12.4 µM (inactive),25.7 µM (inactive),3.43 µM (inactive),–,9.55 µM (inactive),14 µM (inactive),11.1 µM (inactive)
COc1ccc2c(c1)[n+]([O-])c(-c1ccc([N+](=O)[O-])cc1)c(N)[n+]2[O-],81.3 µM (inactive),> 100 µM (inactive),12.7 µM (inactive),> 100 µM (inactive),> 100 µM (inactive),–,70.8 µM (inactive),88.5 µM (inactive),> 100 µM (inactive),22.3 µM (inactive),> 100 µM (inactive),–,32.6 µM (inactive),49.5 µM (inactive),> 100 µM (inactive),> 100 µM (inactive),> 100 µM (inactive),–
Nc1ccccc1S(=O)(=O)N(CC(=O)O)c1ccccc1,> 100 µM (inactive),–,> 100 µM (inactive),–,> 100 µM (inactive),–,> 100 µM (inactive),> 100 µM (inactive),> 100 µM (inactive),> 100 µM (inactive),> 100 µM (inactive),> 100 µM (inactive),> 100 µM (inactive),> 100 µM (inactive),> 100 µM (inactive),–,> 100 µM (inactive),> 100 µM (inactive)
O=C(NC1CCC[C@H]1OC(=O)c1ccccc1)c1ccccc1 (stereo not given in full),> 100 µM (inactive),69.8 µM (inactive),–,–,30.8 µM (inactive),–,40.4 µM (inactive),31 µM (inactive),> 100 µM (inactive),30.1 µM (inactive),10.7 µM (inactive),–,38 µM (inactive),> 100 µM (inactive),> 100 µM (inactive),13.7 µM (inactive),37.2 µM (inactive),–
O=c1cccccc1NCCCCNc1cccccc1=O,> 100 µM (inactive),> 100 µM (inactive),83.8 µM (inactive),> 100 µM (inactive),50.8 µM (inactive),85.3 µM (inactive),59.2 µM (inactive),67.8 µM (inactive),> 100 µM (inactive),62.1 µM (inactive),> 100 µM (inactive),43.4 µM (inactive),> 100 µM (inactive),> 100 µM (inactive),–,73.6 µM (inactive),30 µM (inactive),> 100 µM (inactive)
Oc1cccnc1/C=N/OCc1ccccc1,> 100 µM (inactive),> 100 µM (inactive),> 100 µM (inactive),> 100 µM (inactive),–,> 100 µM (inactive),> 100 µM (inactive),–,> 100 µM (inactive),> 100 µM (inactive),> 100 µM (inactive),> 100 µM (inactive),> 100 µM (inactive),> 100 µM (inactive),23.6 µM (inactive),> 100 µM (inactive),> 100 µM (inactive),> 100 µM (inactive)
O=C(CCc1nnc2s/c(=C\c3ccccc3[N+](=O)[O-])c(=O)n12)Nc1cc(Cl)c(Cl)cc1Cl,63.4 µM (inactive),19.5 µM (inactive),38.3 µM (inactive),23.1 µM (inactive),14.7 µM (inactive),38.5 µM (inactive),30.5 µM (inactive),33.2 µM (inactive),37.9 µM (inactive),21 µM (inactive),20.5 µM (inactive),–,22 µM (inactive),27.4 µM (inactive),22 µM (inactive),16.4 µM (inactive),34.1 µM (inactive),20.8 µM (inactive)
Nc1c(Cl)ncnc1NCCCCCCCCCCCCNc1ncnc(Cl)c1N,0.0671 µM (active),3.12 µM (inactive),–,0.254 µM (active),1.99 µM (inactive),3.72 µM (inactive),2.07 µM (inactive),< 0.01 µM (active),3.44 µM (inactive),0.167 µM (active),1.28 µM (inactive),1.5 µM (inactive),< 0.01 µM (active),1.9 µM (inactive),1.54 µM (inactive),–,< 0.01 µM (active),< 0.01 µM (active)
Cc1ccccc1N(CCC#N)C1=NN(C(=O)CC(=O)Nc2ccc(Cl)cc2)C(c2ccccc2)C1 (stereo not given),> 100 µM (inactive),> 100 µM (inactive),> 100 µM (inactive),> 100 µM (inactive),> 100 µM (inactive),> 100 µM (inactive),> 100 µM (inactive),> 100 µM (inactive),> 100 µM (inactive),> 100 µM (inactive),> 100 µM (inactive),> 100 µM (inactive),> 100 µM (inactive),> 100 µM (inactive),> 100 µM (inactive),> 100 µM (inactive),> 100 µM (inactive),–

# Source: ChEMBL document CHEMBL1201862, “PubChem BioAssay data set” (2004)
